# “Also recorded” adds a separate entry of the source.
# Legend:
# [1] = tested on: total and phospho-tau in wild type brain slices; experiment: Tau levels in wild type brain slice cultures; type: cell-based, mouse
# Method: YM-08 activity in a more physiological system was tested. Brain slice cultures from transgenic mice that express mutated tau were treated for 6 hours with YM-08 and the levels of total- and pS396/404 tau measured by Western blots. […] To test whether YM-08 might selectively reduce tau after microtubule disruption, brain slices were cultured from wild type mice and treated them with YM-08 plus the microtubule destabilizer, nocodazole. […] Together, these studies add to growing evidence that Hsp70 selectively identifies tau variants that are not associated with the normal microtubule network, likely minimizing their aggregation and proteotoxicity.
# [2] = Solubility in dosing vehicle; type: physicochemical
# Method: (A) Initial pharmacokinetics and biodistribution of YM-01 and YM-08. Compounds were suspended in buffered saline (YM-01) or 10% DMSO/saline (YM-08) and injected at 20 and 10 mg/kg, respectively. YM-08 was not soluble in saline or 10% DMSO/saline at 20 mg/kg. The levels of YM-08 in the brain at 1 hr after injection could not be accurately determined because its value was outside the calibration curve. […] Results are average from data acquired from three female mice. (C) YM-08 maintains a B/P ratio of nearly 0.25 for 18 hrs.
# The initial pharmacokinetics (PK) of YM-01 and YM-08 were tested in CD1 mice. […] After a single 6.6 mg/kg dose delivered i.v., the peak brain concentration of YM-08 was 4 μg/g (FIG. 7B) and the ratio in the brain:plasma (B/P) ratio was approximately 0.25 for 18 hrs (FIG. 7C). […] It is not yet clear how much tau levels need to be reduced to achieve therapeutic effects in disease models, but the area-under-the-curve (AUCinf) for YM-08 in the brain was 0.26 μg·hr/g and the AUCinf in plasma was 13.6 μg·hr/mL.
# [3] = target: T1, human Hsc70 (HSPA8) (Homo sapiens, UniProt P11142); experiment: ELISA competitive binding assay (biotinylated MKT-077 displacement); details: competitive ELISA, biotin labeled MKT-077 1 μM
# T1 construct: made in house
# Method: Binding of MKT-077 analogs to immobilized Hsp70 was evaluated using a competitive ELISA. In this established assay, a biotinylated version of MKT-077 is bound to immobilized human Hsc70 (HSPA8) and potential competitors are tested for their ability to block the interaction.
# A sample of Hsc70 (50 μL; 0.06 mg/mL) was immobilized in clear flat-bottom 96-well plate in MES buffer (50 mM 2-(N-morpholino)ethanesulfonic acid, pH 5.2) at 37° C. overnight. After discarding the excess protein solution, each well was washed three times with 150 μL TBS-T buffer (25 mM Tris, 140 mM NaCl, 2.7 mM KCl, 0.01% Tween-20, pH 7.4). Then, 1 μL of compound (1% DMSO) was diluted into 24 μL of binding buffer (100 mM Tris, 20 mM KCl, 6 mM MgCl2, 0.01% Triton-X100) and incubated at room temperature for 30 min. Biotin labeled MKT-077 (final concentration 1 μM; 25 μL) was subsequently added into each well and the mixture was incubated at room temperature for another 3 hrs. The wells were washed with 150 μL TBS-T buffer three times prior to blocking with 100 μL 3% bovine serum albumin (BSA) in TBS-T buffer for 5 min at room temperature. After the removal of the BSA solution, 50 μL of HRP-streptavidin (Pierce Biotechnology, 1:50000 TBS-T dilution) solution was added and the plates were incubated at room temperature for 1 hr. The HRP-streptavidin solution was removed and wells were washed three times with 150 μL TBS-T. […] substrate (Cell Signaling Technology 100 μL) was added into each well and incubated at room temperature until a visible blue color was shown in wells (about 20 min). 1 M HCl stop solution was then added into each well to yield a yellow solution and the absorbance at 450 nm was recorded on SpectraMax M5 (Molecular Devices).
# [4] = tested on: MEF (C57BL/6); experiment: Cell survival, MEF; type: cell-based; details: Mus musculus; tau activity screen table; read-out: MEF IC50
# [5] = t1/2 in tau activity screen table; type: in vitro ADME; details: liver microsomes; matrix not stated
# [6] = target: yeast Hsp70 (Ssa1p) and Hlj1p (Saccharomyces cerevisiae, UniProt P10591); experiment: Single turnover ATPase assay; type: biochemical
# Method: Next, the effect of chaperone functions by binding of YM-08 to Hsp70 was investigated. […] This profile is shared with other allosteric Hsp70 inhibitors. As another test of chaperone function, the effects of the compounds on the binding of Hsp70 to a misfolded protein were measured. In previous work, MKT-077 stabilized the interaction between prokaryotic Hsp70 (DnaK) and denatured luciferase. Briefly, this assay involves immobilizing unfolded luciferase in microtiter plates and measuring binding to DnaK. […] To explore whether YM-08 might also enhance binding of Hsp70 to a more physiologically relevant substrate, binding of tau to immobilized human Hsc70 was measured.
# Single turnover ATPase assays were performed as previously described in, e.g., Fewell, et al., J. Biol. Chem., 279:51131-51140 (2004), and Chiang, et al., Bioorg. Med. Chem., 17:1527-1533 (2009). Briefly, the yeast Hsp70, Ssa1p (about 0.2 μM), was prebound to α-[32P]ATP. The hydrolysis of ATP in the presence or absence of an equimolar amount of Hlj1 was measured by monitoring the generation of α-[32P]ADP by thin layer chromatography (TLC).
# yeast Hsp70 (Ssa1p) and Hlj1p, sequence (P10591 whole entry): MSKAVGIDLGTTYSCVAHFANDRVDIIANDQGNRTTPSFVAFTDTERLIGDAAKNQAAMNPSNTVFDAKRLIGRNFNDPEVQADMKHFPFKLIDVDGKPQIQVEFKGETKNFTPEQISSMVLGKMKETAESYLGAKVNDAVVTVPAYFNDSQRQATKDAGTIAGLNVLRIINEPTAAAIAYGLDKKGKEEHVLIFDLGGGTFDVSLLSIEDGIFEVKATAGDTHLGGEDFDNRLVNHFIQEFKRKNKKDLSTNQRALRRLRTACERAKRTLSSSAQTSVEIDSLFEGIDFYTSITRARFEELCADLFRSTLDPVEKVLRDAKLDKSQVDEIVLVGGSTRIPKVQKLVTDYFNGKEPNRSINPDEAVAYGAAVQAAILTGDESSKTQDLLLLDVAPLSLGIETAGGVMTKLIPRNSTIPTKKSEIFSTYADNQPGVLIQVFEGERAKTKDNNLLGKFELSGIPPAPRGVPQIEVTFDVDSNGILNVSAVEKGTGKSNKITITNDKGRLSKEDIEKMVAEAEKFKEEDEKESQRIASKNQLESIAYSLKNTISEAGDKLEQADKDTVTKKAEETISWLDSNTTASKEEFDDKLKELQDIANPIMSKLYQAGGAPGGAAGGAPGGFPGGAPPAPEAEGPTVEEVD
# T1 sequence (P11142 whole entry): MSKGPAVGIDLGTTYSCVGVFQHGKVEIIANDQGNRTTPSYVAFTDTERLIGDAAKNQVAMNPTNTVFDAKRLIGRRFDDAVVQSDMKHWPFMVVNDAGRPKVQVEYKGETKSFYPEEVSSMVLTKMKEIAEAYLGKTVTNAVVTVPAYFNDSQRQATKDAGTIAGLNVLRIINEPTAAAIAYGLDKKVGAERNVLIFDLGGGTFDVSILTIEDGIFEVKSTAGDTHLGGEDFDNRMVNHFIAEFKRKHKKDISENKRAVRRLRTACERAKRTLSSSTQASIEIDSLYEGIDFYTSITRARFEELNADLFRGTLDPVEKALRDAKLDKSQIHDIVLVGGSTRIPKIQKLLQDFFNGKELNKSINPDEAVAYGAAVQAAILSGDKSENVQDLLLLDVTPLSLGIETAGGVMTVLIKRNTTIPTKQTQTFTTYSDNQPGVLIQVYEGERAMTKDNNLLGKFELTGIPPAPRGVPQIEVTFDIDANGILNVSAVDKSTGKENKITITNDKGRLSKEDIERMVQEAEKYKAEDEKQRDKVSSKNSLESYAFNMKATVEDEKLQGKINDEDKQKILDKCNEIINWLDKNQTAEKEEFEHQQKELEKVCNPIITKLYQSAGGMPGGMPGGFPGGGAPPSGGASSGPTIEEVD
smiles,measurement,setting,value
"CCn1c(=O)/c(=C2\Sc3ccccc3N2C)s/c1=C\c1ccccn1 [YM-08, (2Z,5E)-3-ethyl-5-(3-methylbenzo[d]thiazol-2(3H)-ylidene)-2-(pyridin-2-ylmethylene)thiazolidin-4-one]","tau levels, YM-08 alone",[1],unchanged; also recorded: did not significantly reduce tau levels
same,"total and phospho-tau levels, plus nocodazole",[1]; microtubule disruption,decreased levels of both total and phospho-tau
same,solubility in saline or 10% DMSO/saline,[2],not soluble; also recorded: only marginally soluble
same,IC50,[3],0.61 ± 0.05 µM
same,IC50,[4],4.2 ± 0.24 µM
same,half-life,[5],< 3 min
same,"ATP turnover, Hlj1-stimulated ATPase activity",[6]; Ssa1 plus Hlj1,partially inhibited
same,intrinsic ATPase activity of Ssa1,[6]; without Hlj1,minimal effect
